The values that follow come from patent US9321764B2, “Dihydro-pyrrolopyridinone inhibitors” (AbbVie Inc., priority 2013, dated 2016).

Molecules are shown by their SMILES.

Experiment [1] has as its system breast cancer cell line MX-1. Description: MX-1 cell line proliferation assay. The note with it: Homo sapiens, MX1, 72 h, MX-1 cells, 3-day proliferation assay, Cell Titer Glo; read-out: Cellular proliferation EC50. It is filed as cell-based. Put shortly: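 Final compound concentrations spanned 0.0001 to 3 μM, added to 5000 cells/well plated the previous night in RPMI 1640 plus 10% FBS at 37 °C.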
(Cellular ATP, detected with luciferase, serves as a proxy for viable cell number.)

Another experiment has as its target T1, BRD4 (BDI_K57-E168) (Homo sapiens, UniProt O60885).
T1 construct: BD1: amino acids K57-E168; made in house
Kind of experiment: TR-FRET bromodomain binding assay, first bromodomain of BRD4. The note with it: His-tagged BD1, 100 nM Alexa647 probe; TR-FRET protocol A-E given per row. Summed up: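 Ki values come from IC50s (4-parameter logistic) corrected for probe Kd and concentration, normalised to no-compound and 1 μM unlabelled probe controls. Probe displacement by TR-FRET used 8 nM BD1 (K57-E168), 100 nM Alexa647 probe, 1 nM Eu-anti-His, 20 mM phosphate pH 6.0, 2% DMSO, 1 h, room temperature.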
Background: TR-FRET usually uses a lanthanide donor and a delayed reading to cut background.

The next experiment concerns the target T2, BRD4 (BDII_E352-M457) (Homo sapiens, UniProt O60885).
T2 construct: proliferation; Protocol; made in house
Kind of experiment: TR-FRET bromodomain binding assay, second bromodomain of BRD4. The note with it: His-tagged BD2, 30 nM Alexa647 probe; TR-FRET protocol A-E given per row. Summed up:
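His-tagged BRD4 BD2 ([…]) competed against an Alexa647-labelled BET-inhibitor probe in TR-FRET. Buffer was 20 mM sodium phosphate pH 6.0, 50 mM NaCl, 1 mM EDTA, 0.01% Triton X-100, 1 mM DTT, with method D DMSO series of 2.5 mM–800 nM (stock range). IC50 from 4-parameter fit, Ki from probe Kd and concentration.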

The Ki is a dissociation constant, usually derived from enzyme kinetics or from competition with a known ligand. A high value points to lower affinity. With `COc1cccc(CNc2ccc(Oc3ccc(F)cc3F)c(-c3cn(C)c4c(=O)[nH]ccc34)c2)c1OCc1ccccc1` [Example 177, 3-[5-{[2-(benzyloxy)-3-methoxybenzyl]amino}-2-(2,4-difluorophenoxy)phenyl]-1-methyl-1,6-dihydro-7H-pyrrolo[2,3-c]pyridin-7-one], the EC50 in experiment [1] is above 3 µM. Moreover, the values for the inhibitory constant (Ki) at BRD4 (BDI_K57-E168) and at BRD4 (BDII_E352-M457) were 0.133 µM and 0.248 µM, respectively.
In the same order, the values of `Cn1cc(-c2cc(NCc3ccccc3C#N)ccc2Oc2ccc(F)cc2F)c2cc[nH]c(=O)c21` [Example 178, 2-({[4-(2,4-difluorophenoxy)-3-(1-methyl-7-oxo-6,7-dihydro-1H-pyrrolo[2,3-c]pyridin-3-yl)phenyl]amino}methyl)benzonitrile] are 0.233 µM, 0.0308 µM and 0.239 µM.
On to `Cn1cc(-c2cc(NS(=O)(=O)Cc3ccccc3)ccc2Oc2ccc(F)cc2F)c2cc[nH]c(=O)c21` [Example 180, N-[4-(2,4-difluorophenoxy)-3-(1-methyl-7-oxo-6,7-dihydro-1H-pyrrolo[2,3-c]pyridin-3-yl)phenyl]-1-phenylmethanesulfonamide], for which, in experiment [1], the EC50 was above 1 µM. For the same compound, the Ki amounted to 0.0349 µM at BRD4 (BDI_K57-E168) and 0.0593 µM at BRD4 (BDII_E352-M457).
Turning to `Cn1cc(-c2cc(NS(=O)(=O)Cc3cc(F)ccc3Cl)ccc2Oc2ccc(F)cc2F)c2cc[nH]c(=O)c21` [Example 181, 1-(2-chloro-5-fluorophenyl)-N-[4-(2,4-difluorophenoxy)-3-(1-methyl-7-oxo-6,7-dihydro-1H-pyrrolo[2,3-c]pyridin-3-yl)phenyl]methanesulfonamide], the EC50 in experiment [1] was above 1 µM. In addition, the Ki is 0.0658 µM on BRD4 (BDI_K57-E168) and 0.128 µM on BRD4 (BDII_E352-M457).
For the compound `CCS(=O)(=O)Nc1ccc(Oc2ccc(F)cc2F)c(-c2cn(C)c3c(=O)[nH]c(C4CCNCC4)cc23)c1` [Example 183, N-{4-(2,4-difluorophenoxy)-3-[1-methyl-7-oxo-5-(piperidin-4-yl)-6,7-dihydro-1H-pyrrolo[2,3-c]pyridin-3-yl]phenyl}ethanesulfonamide], in experiment [1], the EC50 was determined as 0.356 µM. Besides, the inhibitory constant (Ki) is 0.00263 µM at BRD4 (BDI_K57-E168) and 0.0134 µM at BRD4 (BDII_E352-M457).
In the case of `CCS(=O)(=O)Nc1cnc(Oc2ccc(F)cc2F)c(-c2cn(C)c3c(=O)[nH]ccc23)c1` [Example 184, N-[6-(2,4-difluorophenoxy)-5-(1-methyl-7-oxo-6,7-dihydro-1H-pyrrolo[2,3-c]pyridin-3-yl)pyridin-3-yl]ethanesulfonamide], the EC50 in experiment [1] was 0.309 µM. For the same compound, the figures for the Ki at BRD4 (BDI_K57-E168) and on BRD4 (BDII_E352-M457) were 0.00531 µM and 0.00472 µM, respectively.
In the same order, the values of `CCS(=O)(=O)Nc1ccc(Oc2ccc(F)cc2F)c(-c2cn(C)c3c(=O)[nH]c(C4CCN(C(=O)C5CC5)CC4)cc23)c1` [Example 185, N-[3-{5-[1-(cyclopropylcarbonyl)piperidin-4-yl]-1-methyl-7-oxo-6,7-dihydro-1H-pyrrolo[2,3-c]pyridin-3-yl}-4-(2,4-difluorophenoxy)phenyl]ethanesulfonamide] are 0.0614 µM, 0.00429 µM and 0.00794 µM.
As for `CCS(=O)(=O)Nc1ccc(Oc2ccc(F)cc2F)c(-c2cn(C)c3c(=O)[nH]c(C4CCN(S(=O)(=O)CC)CC4)cc23)c1` [Example 186, N-[4-(2,4-difluorophenoxy)-3-{5-[1-(ethylsulfonyl)piperidin-4-yl]-1-methyl-7-oxo-6,7-dihydro-1H-pyrrolo[2,3-c]pyridin-3-yl}phenyl]ethanesulfonamide], in experiment [1], the EC50 was found to be 0.0134 µM. For the same compound, the inhibition constant (Ki) was found to be 0.00038 µM on BRD4 (BDI_K57-E168) and 0.00082 µM at BRD4 (BDII_E352-M457).
Turning to `CCS(=O)(=O)Nc1ccc(Oc2ccc(F)cc2F)c(-c2cn(C)c3c(=O)[nH]c(C(=O)NCCCn4ccnc4)cc23)c1` [Example 187, 3-{2-(2,4-difluorophenoxy)-5-[(ethylsulfonyl)amino]phenyl}-N-[3-(1H-imidazol-1-yl)propyl]-1-methyl-7-oxo-6,7-dihydro-1H-pyrrolo[2,3-c]pyridine-5-carboxamide], the EC50 in experiment [1] stood at 0.0647 µM. The inhibitory constant (Ki) at BRD4 (BDI_K57-E168) was found to be 0.00121 µM; on BRD4 (BDII_E352-M457), 0.00202 µM.
As for `CCS(=O)(=O)Nc1ccc(Oc2ccc(F)cc2F)c(-c2cn(C)c3c(=O)[nH]c(C(=O)NCCN(C)C)cc23)c1` [Example 188, 3-{2-(2,4-difluorophenoxy)-5-[(ethylsulfonyl)amino]phenyl}-N-[2-(dimethylamino)ethyl]-1-methyl-7-oxo-6,7-dihydro-1H-pyrrolo[2,3-c]pyridine-5-carboxamide], the EC50 in experiment [1] came to 0.0299 µM. The inhibitory constant (Ki) on BRD4 (BDI_K57-E168) turned out to be 0.00142 µM; at BRD4 (BDII_E352-M457) it was 0.0135 µM.
For the compound `CCS(=O)(=O)Nc1ccc(Oc2ccc(F)cc2F)c(-c2cn(C)c3c(=O)[nH]c(C(=O)NCC#N)cc23)c1` [Example 189, N-(cyanomethyl)-3-{2-(2,4-difluorophenoxy)-5-[(ethylsulfonyl)amino]phenyl}-1-methyl-7-oxo-6,7-dihydro-1H-pyrrolo[2,3-c]pyridine-5-carboxamide], the EC50 in experiment [1] turned out to be 0.0779 µM. For the same compound, the inhibition constant (Ki) at BRD4 (BDI_K57-E168) is 0.00195 µM; at BRD4 (BDII_E352-M457), 0.00882 µM.
Consider `CCS(=O)(=O)Nc1ccc(Oc2ccc(F)cc2F)c(-c2cn(C)c3c(=O)[nH]c(C(=O)NCCCO)cc23)c1` [Example 190, 3-{2-(2,4-difluorophenoxy)-5-[(ethylsulfonyl)amino]phenyl}-N-(3-hydroxypropyl)-1-methyl-7-oxo-6,7-dihydro-1H-pyrrolo[2,3-c]pyridine-5-carboxamide], for which the EC50 in experiment [1] amounted to 0.082 µM. The Ki is 0.00201 µM on BRD4 (BDI_K57-E168) and 0.00385 µM on BRD4 (BDII_E352-M457).
On to `CCS(=O)(=O)Nc1ccc(Oc2ccc(F)cc2F)c(-c2cn(C)c3c(=O)[nH]c(C(=O)NCc4cccnc4)cc23)c1` [Example 192, 3-{2-(2,4-difluorophenoxy)-5-[(ethylsulfonyl)amino]phenyl}-1-methyl-7-oxo-N-(pyridin-3-ylmethyl)-6,7-dihydro-1H-pyrrolo[2,3-c]pyridine-5-carboxamide], for which the EC50 in experiment [1] amounted to 0.0107 µM. The inhibition constant Ki at BRD4 (BDI_K57-E168) came to 0.0009 µM; on BRD4 (BDII_E352-M457) it was 0.0013 µM.
Regarding `CCS(=O)(=O)Nc1ccc(Oc2ccc(F)cc2F)c(-c2cn(C)c3c(=O)[nH]c(C(=O)N4CCCC4)cc23)c1` [Example 193, N-{4-(2,4-difluorophenoxy)-3-[1-methyl-7-oxo-5-(pyrrolidin-1-ylcarbonyl)-6,7-dihydro-1H-pyrrolo[2,3-c]pyridin-3-yl]phenyl}ethanesulfonamide], the EC50 in experiment [1] was found to be 0.111 µM. Besides, the Ki on BRD4 (BDI_K57-E168) was found to be 0.0043 µM; at BRD4 (BDII_E352-M457), 0.0413 µM.
For `CCS(=O)(=O)Nc1ccc(Oc2ccc(F)cc2F)c(-c2cn(C)c3c(=O)[nH]c(C(=O)NCC4CCCC4)cc23)c1` [Example 195, N-(cyclopentylmethyl)-3-{2-(2,4-difluorophenoxy)-5-[(ethylsulfonyl)amino]phenyl}-1-methyl-7-oxo-6,7-dihydro-1H-pyrrolo[2,3-c]pyridine-5-c arboxamide], in experiment [1], the EC50 stood at 0.162 µM. The Ki was determined as 0.0104 µM on BRD4 (BDI_K57-E168) and 0.0127 µM on BRD4 (BDII_E352-M457).
On to `CCS(=O)(=O)Nc1ccc(Oc2ccc(F)cc2F)c(-c2cn(C)c3c(=O)[nH]c(C(=O)NCCN4CCOCC4)cc23)c1` [Example 196, 3-{2-(2,4-difluorophenoxy)-5-[(ethylsulfonyl)amino]phenyl}-1-methyl-N-[2-(morpholin-4-yl)ethyl]-7-oxo-6,7-dihydro-1H-pyrrolo[2,3-c]pyridine-5-carboxamide], for which the EC50 in experiment [1] worked out at 0.0309 µM. Also, the Ki at BRD4 (BDI_K57-E168) is 0.00166 µM; at BRD4 (BDII_E352-M457), 0.00964 µM.
Consider `CCS(=O)(=O)Nc1ccc(Oc2ccc(F)cc2F)c(-c2cn(C)c3c(=O)[nH]c(C(=O)NCCN4CCN(C)CC4)cc23)c1` [Example 197, 3-{2-(2,4-difluorophenoxy)-5-[(ethylsulfonyl)amino]phenyl}-1-methyl-N-[2-(4-methylpiperazin-1-yl)ethyl]-7-oxo-6,7-dihydro-1H-pyrrolo[2,3-c]pyridine-5-carboxamide], for which, in experiment [1], the EC50 stood at 0.0676 µM. For the same compound, the Ki was determined as 0.00205 µM at BRD4 (BDI_K57-E168) and 0.00423 µM at BRD4 (BDII_E352-M457).
For `CCS(=O)(=O)Nc1ccc(Oc2ccc(F)cc2F)c(-c2cn(C)c3c(=O)[nH]c(C(=O)NCC4CCOC4)cc23)c1` (stereo not drawn) [Example 199, 3-{2-(2,4-difluorophenoxy)-5-[(ethylsulfonyl)amino]phenyl}-1-methyl-7-oxo-N-(tetrahydrofuran-3-ylmethyl)-6,7-dihydro-1H-pyrrolo[2,3-c]pyridine-5-carboxamide] the same measures were 0.0368 µM, 0.00363 µM and 0.0065 µM.
On to `CCS(=O)(=O)Nc1ccc(Oc2ccc(F)cc2F)c(-c2cn(C)c3c(=O)[nH]c(C(=O)NC)cc23)c1` [Example 200, 3-{2-(2,4-difluorophenoxy)-5-[(ethylsulfonyl)amino]phenyl}-N,1-dimethyl-7-oxo-6,7-dihydro-1H-pyrrolo[2,3-c]pyridine-5-carboxamide], for which, in experiment [1], the EC50 came to 0.0436 µM. The results for the Ki at BRD4 (BDI_K57-E168) and on BRD4 (BDII_E352-M457) were 0.00324 µM and 0.00456 µM, respectively.
